Assay results published in article PMC6778101 (Nature Communications, 2019).
“Also recorded” adds a separate entry of the source. Like-named read-outs stand apart in the source and are kept apart here. Peptide text beside a SMILES is read from it.

Experiments:
[1] = system: E. coli ATCC 25922; experiment: Laboratory evolution of resistance, MIC fold change of adapted lines; type: cell-based; details: Escherichia coli ATCC 25922; parallel line 1 of 10
Source text: (§1) The tested pathogens initially sensitive to the AMPs and the antibiotics included Escherichia coli (ATCC® 25922™) (abbreviated as E. coli ATCC 25922), Salmonella enterica subsp. enterica serovar Typhimurium LT2 (abbreviated as S. enterica LT2), Klebsiella pneumoniae subsp. pneumoniae (Schroeter) Trevisan (ATCC® 10031™) (abbreviated as K. pneumoniae ATCC 10031) and Acinetobacter baumannii Bouvet and Grimont (ATCC® 17978™) (abbreviated as A. baumannii ATCC 17978).
(§2) The evolutionary protocol was designed to avoid population extinction and to ensure that populations with the highest level of resistance were propagated further. Starting with a subinhibitory drug concentration (Supplementary Data 8), resulting in ~50% growth inhibition, 10 parallel populations per drug were allowed to grow in Minimal Salts medium for 72 h and 300 r.p.m. E. coli K-12 BW25113 and E. coli mutD5 populations were incubated at 30 °C, while E. coli ATCC 25922, S. enterica LT2, K. pneumonia ATCC 10031, and A. baumannii ATCC 17978 were incubated at 37 °C. […] Prior to each transfer, cell growth was monitored by measuring the optical density at 600 nm (OD600 value, Biotek Synergy 2 microplate reader). Only populations with the highest drug concentration (and reaching OD600 > 0.2) were selected for further evolution. A chess-board layout was used on the plate to monitor potential cross-contamination events. […] E. coli mutD5 was adapted to TPII, also in 10 parallel evolving populations.
(§3) MICs were determined using a standard serial broth dilution technique. Briefly, 11-step serial dilutions were prepared in 96-well microtiter plates with three replicates per strain and antimicrobial compound. Each experiment was repeated at least twice. […] Cell growth was monitored by measuring the optical density (OD600 value, Biotek Synergy 2 microplate reader was used for this purpose). […] Relative MIC was calculated as follows: MICrelative = MICevolved/MICcontrol.

[2] = system: A. baumannii ATCC 17978; experiment: as above; type: cell-based; details: Acinetobacter baumannii ATCC 17978; parallel line 1 of 10
Source text: as §1, §2, §3

[3] = system: K. pneumoniae ATCC 10031; experiment: as above; type: cell-based; details: Klebsiella pneumoniae ATCC 10031; parallel line 1 of 10
Source text: as §1, §2, §3

[4] = system: E. coli mutD5; experiment: Laboratory evolution of resistance in mutator strain, MIC fold change; type: cell-based, Escherichia coli; details: for MIC fold change after the evolution: mutD5 mutator strain (*)
Source text: Unless otherwise indicated, we used E. coli K-12 BW25113 in all high-throughput experiments. To investigate the impact of mutation rate on evolution of AMP resistance, we initiated laboratory evolution with a mutator strain E. coli mutD5 that carries mutations in the dnaQ gene (L73W and A164V).
as §2
(§4) MICs were determined using a standard serial broth dilution technique. Briefly, 11-step serial dilutions were prepared in 96-well microtiter plates with three replicates per strain and antimicrobial compound. Each experiment was repeated at least twice. 5 × 10^5 cells/mL were inoculated into each well, and the plates were incubated at 30 °C in case of E. coli K-12 BW25113, and its antibiotic and AMP-adapted lines, or 37 °C in case of the other bacterial species. Plates were shaken at 300 r.p.m. during incubation for 24 and 18 h, respectively. Cell growth was monitored by measuring the optical density (OD600 value, Biotek Synergy 2 microplate reader was used for this purpose). […] Relative MIC was calculated as follows: MICrelative = MICevolved/MICcontrol.

[5] = system: E.coli K-12 BW25113; type: cell-based, Escherichia coli; details: for MIC (freshly prepared AMP): plates inoculated immediately; for MIC (pre-incubated AMP): plates pre-incubated 72 hours before inoculation
Procedure: as §4
Supplementary Table 7- Effect of incubation time on the minimum inhibitory concentration (MIC) of AMPs. We tested whether the prolonged incubation time can affect the MIC of AMPs. To test this, two sets of AMP containing MIC plates were prepared in parallel. The first set was immediately inoculated with E.coli K-12 BW25113, while the second set was pre-incubated 72 hours before inoculation with the […]
observed in the MIC between freshly prepared and pre-incubated plates. […]

[6] = time allowed for bacterial growth 24 hours
[7] = time allowed for bacterial growth 48 hours
[8] = time allowed for bacterial growth 72 hours

Compound: CC[C@H](C)[C@@H]1NC(=O)CNC(=O)[C@H](CCCNC(=N)N)NC(=O)[C@H](Cc2ccc(O)cc2)NC(=O)[C@@H]2CSSC[C@H](NC1=O)C(=O)N[C@@H](Cc1ccc(O)cc1)C(=O)N[C@@H](CCCNC(=N)N)C(=O)N[C@@H](CCCCN)C(=O)N[C@H](C(=O)N[C@@H](CCCNC(=N)N)C(N)=O)CSSC[C@H](NC(=O)[C@H](Cc1c[nH]c3ccccc13)NC(=O)[C@@H](N)CCCNC(=N)N)C(=O)N[C@@H](Cc1ccccc1)C(=O)N[C@@H](CCCNC(=N)N)C(=O)N[C@@H](C(C)C)C(=O)N2 [TPII, tachyplesin II] (HELM PEPTIDE1{R.W.C.F.R.V.C.Y.R.G.I.C.Y.R.K.C.R.[am]}$PEPTIDE1,PEPTIDE1,3:R3-16:R3|PEPTIDE1,PEPTIDE1,7:R3-12:R3$$$V2.0; N-terminus and C-terminus assumed; bridges inferred)
- MIC fold change following 20 transfers [1]: 4.8 fold
- MIC fold change following 20 transfers [2]: 4.3 fold
- MIC fold change following 20 transfers [3]: 5.6 fold
- resistance in evolved mutator populations (in words) ([4]; 10 laboratory evolved E. coli K-12 mutD5 populations): none of the 10 laboratory evolved mutator E. coli K-12 mutD5 populations displayed resistance; also recorded: failed to develop resistance
- MIC fold change following 20 transfers ([4]; Escherichia coli mutD5 mutator strain, parallel line 1 of 10): 1.4 fold
- MIC fold change after the evolution ([4]; parallel-evolved line 1): 1
- MIC fold change after the evolution ([4]; parallel-evolved line 2): 1
- MIC fold change after the evolution ([4]; parallel-evolved line 3): 1
- MIC fold change after the evolution ([4]; parallel-evolved line 4): 1
- MIC fold change after the evolution ([4]; parallel-evolved line 5): 1
- MIC fold change after the evolution ([4]; parallel-evolved line 6): 1
- MIC fold change after the evolution ([4]; parallel-evolved line 7): 1
- MIC fold change after the evolution ([4]; parallel-evolved line 8): 1
- MIC fold change after the evolution ([4]; parallel-evolved line 9): 1
- MIC fold change after the evolution ([4]; parallel-evolved line 10): 1
- MIC (freshly prepared AMP) [5, 6]: 5 µg/mL
- MIC (freshly prepared AMP) [5, 7]: 5 µg/mL
- MIC (freshly prepared AMP) [5, 8]: 5 µg/mL
- MIC (pre-incubated AMP) [5, 6]: 6 µg/mL
- MIC (pre-incubated AMP) [5, 7]: 6 µg/mL
- MIC (pre-incubated AMP) [5, 8]: 6 µg/mL
